For 7 compounds, Ki and EC50 results are on record in ChEMBL document CHEMBL4808162, “Constraining the Side Chain of C-Terminal Amino Acids in Apelin-13 Greatly Increases Affinity, Modulates Signaling, and Improves the Pharmacokinetic Profile” (J Med Chem, 2021).

The structures appear in SMILES notation.

The target in test [1] is T1, Apelin receptor (Homo sapiens, UniProt P35414).
T1 sequence (P35414 whole entry): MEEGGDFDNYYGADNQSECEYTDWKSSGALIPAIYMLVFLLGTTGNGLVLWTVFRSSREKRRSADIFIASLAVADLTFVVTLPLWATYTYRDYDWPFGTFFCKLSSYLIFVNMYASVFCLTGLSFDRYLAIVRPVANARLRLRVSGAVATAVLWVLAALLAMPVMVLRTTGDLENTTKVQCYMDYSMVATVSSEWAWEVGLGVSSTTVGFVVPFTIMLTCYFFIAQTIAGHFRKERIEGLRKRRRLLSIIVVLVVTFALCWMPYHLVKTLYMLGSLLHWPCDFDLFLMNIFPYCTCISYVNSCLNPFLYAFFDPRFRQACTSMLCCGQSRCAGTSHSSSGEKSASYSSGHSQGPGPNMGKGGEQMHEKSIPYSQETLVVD
As to the kind of experiment: Displacement of [125I] [NIe75,Tyr77]Pyr-apelin-13 from YFP-tagged human APJ receptor expressed in HEK293 cells incubated for 1 hr by gamma counting analysis. It is filed as cell-based. A general note: Loss of bound radioactivity is the signal in a displacement assay; it reports binding, not function.

For test [2], the target named is T1, Apelin receptor. As to the kind of experiment: Agonist activity at human APJ receptor expressed in HEK293T cells co-expressing Galphai1 RlucII assessed as dissociation of Galphai1 from Gbetta/gamma subunit measured using coelenterazine luciferase substrate incubated for 5 mins by BRET assay. The test is classed as functional, cell-based, HEK293. (Bioluminescence resonance energy transfer reports proximity on the nanometre scale.)

Test [3] has as its target T1, Apelin receptor. Put plainly: Agonist activity at human APJ receptor expressed in HEK293T cells co-expressing PDZ-Rho-Gef-RLucll and rGFP-CAAX assessed as induction of recruitment of Galpha12 to cell membrane using coelenterazine luciferase substrate incubated for 5 mins by BRET assay. It is filed as functional, cell-based, HEK293.
The target in test [4] is T1, Apelin receptor. As to the kind of experiment: Agonist activity at human APJ receptor expressed in HEK293 cells co-expressing Rlucll-beta-arrestin2 assessed as induction of beta-arrestin2 recruitment to receptor incubated for 30 mins by BRET assay. The test is classed as functional, cell-based.

As usually defined, the Ki is a dissociation constant, usually derived from enzyme kinetics or from competition with a known ligand. Higher therefore signals weaker binding. For orientation: EC50 means the concentration at which the effect is half-maximal. Regarding `CCCC[C@H](NC(=O)[C@@H]1CCCN1C(=O)CNC(=O)[C@H](CCCCN)NC(=O)[C@H](Cc1cnc[nH]1)NC(=O)[C@H](CO)NC(=O)[C@H](CC(C)C)NC(=O)[C@H](CCCNC(=N)N)NC(=O)[C@@H]1CCCN1C(=O)[C@H](CCCNC(=N)N)NC(=O)[C@@H]1CCC(=O)N1)C(=O)N1CCC[C@H]1C(=O)N[C@@](C)(Cc1ccc(OCc2ccccc2)cc1)C(=O)O`, affinity in test [1] was put at a Ki of 1 nM. In addition, the results for the EC50 in test [2], in test [3] and in test [4] were 19 nM, 11 nM and 571 nM, respectively.

Consider `CCCC[C@H](NC(=O)[C@@H]1CCCN1C(=O)CNC(=O)[C@H](CCCCN)NC(=O)[C@H](Cc1cnc[nH]1)NC(=O)[C@H](CO)NC(=O)[C@H](CC(C)C)NC(=O)[C@H](CCCNC(=N)N)NC(=O)[C@@H]1CCCN1C(=O)[C@H](CCCNC(=N)N)NC(=O)[C@@H]1CCC(=O)N1)C(=O)N1Cc2ccccc2C[C@@H]1C(=O)N[C@@H](Cc1ccccc1)C(=O)O`, for which the affinity in test [1], expressed as Ki, was 9.7 nM. Moreover, the results for the EC50 in test [2], in test [3] and in test [4] were 9.6 nM, 67 nM and 142 nM, respectively.

Compound `CCCC[C@H](NC(=O)[C@@H]1CCCN1C(=O)CNC(=O)[C@H](CCCCN)NC(=O)[C@H](Cc1cnc[nH]1)NC(=O)[C@H](CO)NC(=O)[C@H](CC(C)C)NC(=O)[C@H](CCCNC(=N)N)NC(=O)[C@@H]1CCCN1C(=O)[C@H](CCCNC(=N)N)NC(=O)[C@@H]1CCC(=O)N1)C(=O)N1CCC[C@H]1C(=O)N[C@H](Cc1cccc(OCc2ccccc2)c1)C(=O)O` displayed a Ki in test [1] (hek293) of 0.46 nM. Besides, the values for the EC50 in test [2] (hek293), in test [3] (hek293) and in test [4] (hek293) were 3.8 nM, 45 nM and 106 nM, respectively.

For `CCCC[C@H](NC(=O)[C@@H]1CCCN1C(=O)CNC(=O)[C@H](CCCCN)NC(=O)[C@H](Cc1cnc[nH]1)NC(=O)[C@H](CO)NC(=O)[C@H](CC(C)C)NC(=O)[C@H](CCCNC(=N)N)NC(=O)[C@@H]1CCCN1C(=O)[C@H](CCCNC(=N)N)NC(=O)[C@@H]1CCC(=O)N1)C(=O)N1CCC[C@H]1C(=O)N[C@H](Cc1cccc(-c2ccccc2)c1)C(=O)O`, affinity in test [1] (hek293) was put at a Ki of 0.31 nM. For the same compound, the EC50 in test [2] (hek293) was 1.4 nM; in test [3] (hek293) it was 24 nM; in test [4] (hek293) it was 47 nM.

Compound `CCCC[C@H](NC(=O)[C@@H]1CCCN1C(=O)CNC(=O)[C@H](CCCCN)NC(=O)[C@H](Cc1cnc[nH]1)NC(=O)[C@H](CO)NC(=O)[C@H](CC(C)C)NC(=O)[C@H](CCCNC(=N)N)NC(=O)[C@@H]1CCCN1C(=O)[C@H](CCCNC(=N)N)NC(=O)[C@@H]1CCC(=O)N1)C(=O)N1CCC[C@H]1C(=O)N[C@H](C(=O)O)C(C)(C)c1ccccc1` yielded a Ki in test [1] of 0.36 nM. For the same compound, the EC50 in test [2] turned out to be 2.4 nM; in test [3], 67 nM; in test [4], 69 nM.

On to `CCCC[C@H](NC(=O)[C@@H]1CCCN1C(=O)CNC(=O)[C@H](CCCCN)NC(=O)[C@H](Cc1cnc[nH]1)NC(=O)[C@H](CO)NC(=O)[C@H](CC(C)C)NC(=O)[C@H](CCCNC(=N)N)NC(=O)[C@@H]1CCCN1C(=O)[C@H](CCCNC(=N)N)NC(=O)[C@@H]1CCC(=O)N1)C(=O)N1CCC[C@H]1C(=O)N[C@H](Cc1ccc(OCc2ccccc2)cc1)C(=O)O`, for which the affinity in test [1] (hek293) corresponds to a Ki of 0.02 nM. In addition, the results for the EC50 in test [2] (hek293), in test [3] (hek293) and in test [4] (hek293) were 0.5 nM, 11 nM and 14 nM, respectively.

Compound `CCCC[C@H](NC(=O)[C@@H]1CCCN1C(=O)CNC(=O)[C@H](CCCCN)NC(=O)[C@H](Cc1cnc[nH]1)NC(=O)[C@H](CO)NC(=O)[C@H](CC(C)C)NC(=O)[C@H](CCCNC(=N)N)NC(=O)[C@@H]1CCCN1C(=O)[C@H](CCCNC(=N)N)NC(=O)[C@@H]1CCC(=O)N1)C(=O)N[C@H](Cc1ccc2ccccc2c1)C(=O)N1Cc2ccccc2C[C@@H]1C(=O)O` displayed a Ki in test [1] of 0.37 nM. Further, the EC50 stood at 4.3 nM in test [2] and 94 nM in test [4].
